According to US20240287138A1, “CYCLIC PEPTIDES FOR INHIBITING TNF RECEPTOR 1 ACTIVITY” (Merck Sharp & Dohme LLC, priority 2023, published 2024):
Numbered stars: 1 amine (or outer) side, 2 acyl side, 3 side chain; on linkers, the order of the positions; unused ones are H or OH. Square brackets hold non-standard residues; d marks the D form. Peptide text beside a SMILES is read from it. * marks the point of attachment. Trp(βS-Me,7-OMe) = COc1cccc2c([C@H](C)[C@H](N)C(=O)O)c[nH]c12; Trp(1-CH2COOH) = N[C@@H](Cc1cn(CC(=O)O)c2ccccc12)C(=O)O; Trp(7-CN) = N#Cc1cccc2c(C[C@H](N)C(=O)O)c[nH]c12; Trp(7-Cl) = N[C@@H](Cc1c[nH]c2c(Cl)cccc12)C(=O)O; X55 = O=C([C@H]1C[C@H](c2nn[nH]n2)CN1[*:1])[*:2]; Phe(4-CONH2) = NC(=O)c1ccc(C[C@H](N)C(=O)O)cc1; Phe(4-COOH) = N[C@@H](Cc1ccc(C(=O)O)cc1)C(=O)O; Asn(3S-OH) = NC(=O)[C@@H](O)[C@H](N)C(=O)O; X47 = NC[C@H]1C[C@H](C(=O)[*:2])N([*:1])C1; X46 = Nc1ncc(C[C@H](N[*:1])C(=O)[*:2])cn1; Pip(5R-OH) = O=C(O)[C@@H]1CC[C@@H](O)CN1; X1 = O=C([C@@H]1CC[C@H](N[*:1])C1)[*:2]; 4Pal = N[C@@H](Cc1ccncc1)C(=O)O; dHyp = O=C(O)[C@H]1C[C@H](O)CN1; αMeS = C[C@](N)(CO)C(=O)O; Carboxymethyl = O=C(O)C*; Nle = CCCC[C@H](N)C(=O)O; Sar = CNCC(=O)O

Assays:
[1] = target: T1, human soluble TNFR1 (sTNFR1) (Homo sapiens, UniProt P19438); assay: Human sTNFR1-peptide displacement assay (LanthaScreen Eu TR-FRET binding assay)
T1 construct: made in house; host or cells: Sf21 (baculovirus)
T1 sequence (P19438 with tags, fused parts or gaps): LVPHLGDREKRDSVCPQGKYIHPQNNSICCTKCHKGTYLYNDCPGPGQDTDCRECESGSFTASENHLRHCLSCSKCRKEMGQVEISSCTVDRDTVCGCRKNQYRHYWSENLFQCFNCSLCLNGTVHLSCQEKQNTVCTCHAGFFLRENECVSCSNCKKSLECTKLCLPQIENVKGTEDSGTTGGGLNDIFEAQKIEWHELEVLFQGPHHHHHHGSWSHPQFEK
Description: A. Procedure for Human sTNFR1-Peptide Displacement Assay
The affinity was determined using LanthaScreen Eu-based time-resolved fluorescence resonance energy transfer (TR-FRET)-based binding assay.
A TR-FRET assay measuring the displacement of biotinylated peptide SEQ ID NO. 1 from human soluble TNFR1 (sTNFR1) in a pre-formed complex by a macrocyclic peptide yields the affinity (Kd^app) of the cyclic peptide for sTNFR1. The reagents for the assay include: the C′-terminally 6His-tagged sTNFR1 (residues 1-211) protein purified from a Sf21 baculovirus expression system, the biotin-tagged B0372 peptide described in section “Preparation of Final Compounds”, part E, the LanthaScreen™ anti-His Tag Europium donor (Life Technologies Corporation (San Diego, CA), cat. #PV5597), and a streptavidin-conjugate Alexa Fluor™ 647 acceptor (Invitrogen (Waltham, MA), cat. #S32357). Time-resolved TR-FRET is achieved when sTNFR1 is bound to biotinylated peptide SEQ ID NO. 1 through coupling of the donor and acceptor FRET pair.
100 nM biotinylated peptide SEQ ID NO. […] 100 nM biotinylated peptide SEQ ID NO. 1 was chosen as it reflects the ˜Kd for this complex. After 30 min at ambient temperature, each test peptide (2 mM stock in DMSO) is titrated in a 20 point, ˜3-fold discrete dose-response using an acoustic-dispense liquid handler. Specifically, 80 nL of peptide/DMSO is transferred into a ProxiPlate-384 Plus 384-well assay plate (PerkinElmer, cat. #6008289). To this plate, 8 μL of the previously formed sTNFR 1-biotinylated peptide SEQ ID NO. 1 complex is added and allowed to reach binding equilibrium with the test peptide at ambient temperature for 90 min.
The TR-FRET signal is measured with the following EnVision® settings: excitation laser at 337 nm; emission1=615 nm, emission2=665 nm, LANCE/DELFIA dichroic mirror, delay time=[…]. The signal of each well is determined as the ratio of the emission at 665 nm to that at 615 nm. Percent displacement is determined by normalization to control wells containing DMSO (0%) or a saturating concentration of a displaceable peptide (100%). The %-effect as a function of peptide concentration is fit to a five-parameter logistic fit based on the Morrison equation to account for tight binding kinetics.

[2] = target: T2, TNFα-induced NF-κB signal transduction pathway (TNFR1 signaling) in THP-1 cells (Homo sapiens, UniProt P19438); assay: THP-1 Lucia NF-κB reporter cell assay, inhibition of TNFα-induced NF-κB signaling; format: cell-based; conditions: THP-1 NF-κB Lucia reporter cells, 10 ng/mL TNFα, 16-18 h, secreted luciferase; read-out: THP-1 IC50
T2 sequence (P19438 30-455): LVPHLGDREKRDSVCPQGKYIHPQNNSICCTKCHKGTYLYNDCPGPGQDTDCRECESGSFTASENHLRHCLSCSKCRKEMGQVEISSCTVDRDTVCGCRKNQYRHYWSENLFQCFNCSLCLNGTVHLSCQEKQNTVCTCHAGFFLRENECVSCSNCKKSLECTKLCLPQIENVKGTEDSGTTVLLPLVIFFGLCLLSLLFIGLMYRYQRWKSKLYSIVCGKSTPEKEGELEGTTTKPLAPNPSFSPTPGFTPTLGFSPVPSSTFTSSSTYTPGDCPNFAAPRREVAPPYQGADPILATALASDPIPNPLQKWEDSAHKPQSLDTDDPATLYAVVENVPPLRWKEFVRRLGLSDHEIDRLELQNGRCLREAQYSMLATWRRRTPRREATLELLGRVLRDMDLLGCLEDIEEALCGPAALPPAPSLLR
Summary of the method: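 IC50 from a 4-parameter logistic fit of secreted luciferase luminescence (QUANTI-Luc), normalised to min/max controls. Reporter THP-1 cells were exposed to peptides for 1 h at 37 °C before 10 ng/mL TNFα (final) was added overnight (16–18 h).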

SMILES: CCCC[C@@H]1NC(=O)[C@@H]2CC[C@@H](C2)NC(=O)[C@H]([C@@H](C)c2c[nH]c3c(OC)cccc23)NC(=O)CN(C)C(=O)[C@H](Cc2ccc(OCC(=O)O)cc2)NC(=O)[C@H](Cc2cnc(N)nc2)NC(=O)[C@](C)(CO)NC(=O)[C@H](Cc2c[nH]c3c(C#N)cccc23)NC(=O)[C@H](Cc2ccc(OCC(=O)O)cc2)NC(=O)[C@H](CC(N)=O)NC(=O)[C@H]2C[C@H](O)CN2C(=O)[C@H](Cc2cn(CC(=O)O)c3ccccc23)NC(=O)[C@@H]2CC[C@@H](O)CN2C(=O)[C@H](Cc2ccncc2)NC1=O [SEQ ID NO. 6] (cyclo([4Pal][Pip(5R-OH)][Trp(1-CH2COOH)][dHyp]NY(Carboxymethyl)[Trp(7-CN)][αMeS][X46]Y(Carboxymethyl)[Sar][Trp(βS-Me,7-OMe)][X1][Nle]))
- Kd [1]: 80 pM
- IC50 [2]: 800 pM

SMILES: CCCC[C@@H]1NC(=O)[C@@H]2CC[C@@H](C2)NC(=O)[C@H]([C@@H](C)c2c[nH]c3c(OC)cccc23)NC(=O)CN(C)C(=O)[C@H](Cc2ccc(C(=O)O)cc2)NC(=O)[C@H](Cc2ccc(C(N)=O)cc2)NC(=O)[C@](C)(CO)NC(=O)[C@H](Cc2c[nH]c3c(Cl)cccc23)NC(=O)[C@H](Cc2ccc(C(=O)O)cc2)NC(=O)[C@H](CC(N)=O)NC(=O)[C@H]2C[C@H](c3nn[nH]n3)CN2C(=O)[C@H](Cc2c[nH]c3ccccc23)NC(=O)[C@@H]2CC[C@@H](O)CN2C(=O)[C@H](Cc2ccncc2)NC1=O [SEQ ID NO. 11] (cyclo([4Pal][Pip(5R-OH)]W[X55]N[Phe(4-COOH)][Trp(7-Cl)][αMeS][Phe(4-CONH2)][Phe(4-COOH)][Sar][Trp(βS-Me,7-OMe)][X1][Nle]))
- Kd [1]: 70 pM
- IC50 [2]: 700 pM

SMILES: CCCC[C@@H]1NC(=O)[C@@H]2CC[C@@H](C2)NC(=O)[C@H]([C@@H](C)c2c[nH]c3c(OC)cccc23)NC(=O)CN(C)C(=O)[C@H](Cc2ccc(C(=O)O)cc2)NC(=O)[C@H](Cc2ccc(C(N)=O)cc2)NC(=O)[C@](C)(CO)NC(=O)[C@H](Cc2c[nH]c3c(Cl)cccc23)NC(=O)[C@H](Cc2ccc(C(=O)O)cc2)NC(=O)[C@H](CC(N)=O)NC(=O)[C@H]2C[C@H](CN)CN2C(=O)[C@H](Cc2c[nH]c3ccccc23)NC(=O)[C@@H]2CC[C@@H](O)CN2C(=O)[C@H](Cc2ccncc2)NC1=O [SEQ ID NO. 15] (cyclo([4Pal][Pip(5R-OH)]W[X47]N[Phe(4-COOH)][Trp(7-Cl)][αMeS][Phe(4-CONH2)][Phe(4-COOH)][Sar][Trp(βS-Me,7-OMe)][X1][Nle]))
- Kd [1]: 100 pM
- IC50 [2]: 500 pM

SMILES: CCCC[C@@H]1NC(=O)[C@@H]2CC[C@@H](C2)NC(=O)[C@H]([C@@H](C)c2c[nH]c3c(OC)cccc23)NC(=O)CN(C)C(=O)[C@H](Cc2ccc(C(=O)O)cc2)NC(=O)[C@H](Cc2ccc(C(N)=O)cc2)NC(=O)[C@](C)(CO)NC(=O)[C@H](Cc2c[nH]c3c(C#N)cccc23)NC(=O)[C@H](Cc2ccncc2)NC(=O)[C@H]([C@H](O)C(N)=O)NC(=O)[C@H]2C[C@H](O)CN2C(=O)[C@H](Cc2c[nH]c3ccccc23)NC(=O)[C@@H]2CC[C@@H](O)CN2C(=O)[C@H](Cc2ccncc2)NC1=O [SEQ ID NO. 25] (cyclo([4Pal][Trp(7-CN)][αMeS][Phe(4-CONH2)][Phe(4-COOH)][Sar][Trp(βS-Me,7-OMe)][X1][Nle][4Pal][Pip(5R-OH)]W[dHyp][Asn(3S-OH)]))
- Kd [1]: 40 pM
- IC50 [2]: 800 pM
